Assays:
Neuraminidase [1] = molecular target: T1, Neuraminidase (Influenza B virus (strain B/Lee/1940), UniProt P03474)
[2] = molecular target: Neuraminidase (Influenza A virus (A/Puerto Rico/8/1934(H1N1)), UniProt P03468); test: Inhibition of influenza A virus sialidase activity
Neuraminidase [3] = molecular target: T1, Neuraminidase; test: Inhibition of influenza B virus sialidase activity
[4] = molecular target: Neuraminidase (Influenza A virus (A/Puerto Rico/8/1934(H1N1)), UniProt P03468)
[5] = molecular target: Neuraminidase (Influenza A virus (A/Puerto Rico/8/1934(H1N1)), UniProt P03468); test: Inhibition of sialidase (Flu A, 5 nM)
Neuraminidase [6] = molecular target: T1, Neuraminidase; remark: listed apart in the source
Neuraminidase [7] = molecular target: T1, Neuraminidase; test: Inhibitory activity against sialidase (influenza B virus by plaque reduction assay)
Mus musculus [8] = test: Compound was tested for concentration of intranasally administered drug (10 mg/kg) which reduces virus titer by 90%; format: functional; conditions: inhaled or nasal
[9] = molecular target: Neuraminidase (Influenza A virus (A/Puerto Rico/8/1934(H1N1)), UniProt P03468); remark: listed apart in the source
[10] = Vss, volume of distribution at steady state at a dose of 50 mg/kg; format: ADME, organism-based; parameters: dose 50 mg/kg; conditions: in vivo, read-out: Vss
[11] = molecular target: Neuraminidase (Influenza A virus (A/Puerto Rico/8/1934(H1N1)), UniProt P03468); remark: listed apart in the source
[12] = t1/2, plasma elimination half life, the time taken for the plasma concentrations to fall by one half, once distribution is complete at a dose of 50 mg/kg; format: ADME, organism-based; parameters: dose 50 mg/kg
Mus musculus [13] = test: Compound was tested for in vivo efficacy in mouse model of influenza A virus A/Singapore/1/57 at dose of 1 mg/kg.; format: functional
[14] = molecular target: Neuraminidase (Influenza A virus (A/Puerto Rico/8/1934(H1N1)), UniProt P03468); remark: listed apart in the source
[15] = molecular target: Neuraminidase (Influenza A virus (A/Puerto Rico/8/1934(H1N1)), UniProt P03468); remark: listed apart in the source
Mus musculus [16] = test: Compound was tested for in vivo efficacy in mouse model of influenza A virus A/Singapore/1/57 at dose of 10 mg/kg.; format: functional
[17] = Clp, plasma clearance at a dose of 50 mg/kg; format: ADME, organism-based; parameters: dose 50 mg/kg; conditions: read-out: Clp
Mus musculus [18] = test: Compound was tested for in vivo efficacy in mouse model of influenza A virus A/Singapore/1/57 at dose of 50 mg/kg.; format: functional
[19] = t1/2, plasma elimination half life, the time taken for the plasma concentrations to fall by one half, once distribution is complete at a dose of 10 mg/kg; format: ADME, organism-based; parameters: dose 10 mg/kg
Influenza A virus [20] = test: Compound was tested for concentration of intranasally administered (in) (10 mg/kg) which reduces virus titer by 90%; format: functional; conditions: inhaled or nasal
Influenza A virus [21] = test: Compound was tested for in vivo efficacy in mouse model of influenza A virus A/Singapore/1/57 at dose of 100 mg/kg. (i.p.); format: functional; conditions: route intraperitoneal
Influenza A virus [22] = test: Compound was tested for in vivo efficacy in mouse model of influenza A virus A/Singapore/1/57 at dose of 10 mg/kg. (in); format: functional
[23] = Vss, volume of distribution at steady state at a dose of 10 mg/kg; format: ADME, organism-based; parameters: dose 10 mg/kg; conditions: in vivo, read-out: Vss
[24] = Clp, plasma clearance at a dose of 10 mg/kg; format: ADME, organism-based; parameters: dose 10 mg/kg; conditions: read-out: Clp
Mus musculus [25] = test: Compound was tested for in vivo efficacy in mouse model of influenza A virus A/Singapore/1/57 at dose of 0.1 mg/kg.; format: functional
Mus musculus [26] = test: Compound was tested for concentration of intranasally administered drug (1 mg/kg) which reduces virus titer by 90%; format: functional; conditions: inhaled or nasal
Neuraminidase [27] = molecular target: T1, Neuraminidase; test: Inhibitory activity against sialidase of influenza B virus by plaque reduction assay
Mus musculus [28] = test: Compound was tested for in vivo efficacy in mouse model of influenza A virus A/Singapore/1/57 at dose of 0.5 mg/kg (in); format: functional
Mus musculus [29] = test: Compound was tested for concentration of intranasally administered drug (0.5 mg/kg) which reduces virus titer by 90%; format: functional; conditions: inhaled or nasal
Mus musculus [30] = test: Compound was tested for in vivo efficacy in mouse model of influenza A virus A/Singapore/1/57 at dose of 50 mg/kg (ip); format: functional

Sequence of Neuraminidase (Influenza A virus (A/Puerto Rico/8/1934(H1N1)), UniProt P03468) (P03468 whole entry): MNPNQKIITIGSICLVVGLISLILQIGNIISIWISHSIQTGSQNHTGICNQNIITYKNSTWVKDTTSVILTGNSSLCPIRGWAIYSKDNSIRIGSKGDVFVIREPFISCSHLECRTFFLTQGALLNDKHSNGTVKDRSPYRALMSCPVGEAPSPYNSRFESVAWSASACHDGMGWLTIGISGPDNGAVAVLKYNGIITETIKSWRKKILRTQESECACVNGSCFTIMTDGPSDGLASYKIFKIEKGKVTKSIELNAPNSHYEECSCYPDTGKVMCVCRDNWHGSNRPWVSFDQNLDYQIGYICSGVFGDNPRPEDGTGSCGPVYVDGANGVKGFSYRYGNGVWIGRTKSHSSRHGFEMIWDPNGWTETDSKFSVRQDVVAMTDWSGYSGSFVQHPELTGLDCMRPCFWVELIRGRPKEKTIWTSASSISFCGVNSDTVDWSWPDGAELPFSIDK
T1 sequence (P03474 whole entry): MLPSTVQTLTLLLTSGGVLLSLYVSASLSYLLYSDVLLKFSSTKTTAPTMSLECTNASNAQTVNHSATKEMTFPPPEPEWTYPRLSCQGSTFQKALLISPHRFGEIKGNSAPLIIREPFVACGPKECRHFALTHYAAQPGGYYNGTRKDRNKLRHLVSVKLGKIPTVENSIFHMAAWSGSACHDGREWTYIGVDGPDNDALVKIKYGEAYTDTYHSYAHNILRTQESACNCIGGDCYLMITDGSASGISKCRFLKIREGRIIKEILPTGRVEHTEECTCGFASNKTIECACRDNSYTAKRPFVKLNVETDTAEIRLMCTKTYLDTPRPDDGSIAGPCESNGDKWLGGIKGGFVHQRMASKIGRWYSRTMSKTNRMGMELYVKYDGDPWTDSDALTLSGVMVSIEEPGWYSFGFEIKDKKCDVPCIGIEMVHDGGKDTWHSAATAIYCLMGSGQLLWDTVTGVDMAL

CC(=O)N[C@@H]1[C@@H](N)C=C(C(=O)O)O[C@H]1C(=O)N1C(C)CCN1C (some centres not stated)
IC50 (Neuraminidase [1]): 20 µM
IC50 [2]: 210 nM
IC50 (Neuraminidase [3]): 13 µM
IC50 [4]: 52 nM

CC(=O)N[C@@H]1[C@@H](N)C=C(C(=O)O)O[C@H]1C(=O)NCCO
IC50 [5]: 420 µM

CC(=O)N[C@@H]1[C@@H](N)C=C(C(=O)O)O[C@H]1C(=O)N(CCN=[N+]=[N-])CCc1ccccc1
IC50 (Neuraminidase [1]): 28 µM
IC50 [4]: 9 nM

CC(=O)N[C@@H]1[C@@H](N)C=C(C(=O)O)O[C@H]1C(=O)NC1CCCCC1
IC50 [5]: 19 µM
IC50 (Neuraminidase [6]): > 450 µM

CC(=O)N[C@@H]1[C@@H](N)C=C(C(=O)O)O[C@H]1C(=O)N(CCCO)CCc1ccccc1
IC50 [2]: 3000 nM
IC50 (Neuraminidase [3]): > 360 µM

CC(=O)N[C@@H]1[C@@H](N)C=C(C(=O)O)O[C@H]1C(=O)N(CCO)CCc1ccccc1
IC50 [2]: 12 nM
IC50 (Neuraminidase [3]): 100 µM

CC(=O)N[C@@H]1[C@@H](N)C=C(C(=O)O)O[C@H]1C(=O)N1CCCC1C (some centres not stated)
IC50 [2]: 310 nM
IC50 (Neuraminidase [3]): 210 µM

CC(=O)N[C@@H]1[C@@H](N)C=C(C(=O)O)O[C@H]1C(=O)N(CCc1ccccc1)CC(C)C
IC50 [2]: 14 nM

CC(=O)N[C@@H]1[C@@H](N)C=C(C(=O)O)O[C@H]1C(=O)N(CCN)CCc1ccccc1
IC50 [2]: 47000 nM
IC50 (Neuraminidase [3]): 260 µM

CC(=O)N[C@@H]1[C@@H](N)C=C(C(=O)O)O[C@H]1C(=O)N1CCCC1
IC50 (Neuraminidase [7]): > 100 µg/mL
IC50 [2]: 2900 nM

CCCN(CCc1cccc(O)c1)C(=O)[C@@H]1OC(C(=O)O)=C[C@H](N)[C@H]1NC(C)=O
IC50 [2]: 3 nM
IC50 (Neuraminidase [3]): 2.3 µM

C=CCN(CC=C)C(=O)[C@@H]1OC(C(=O)O)=C[C@H](N)[C@H]1NC(C)=O
IC50 [5]: 0.04 µM
IC50 (Neuraminidase [6]): 8.4 µM

CC(=O)N[C@@H]1[C@@H](N)C=C(C(=O)O)O[C@H]1C(=O)NCC(=O)O
IC50 [5]: > 480 µM

CCCN(CCc1ccc(O)cc1)C(=O)[C@@H]1OC(C(=O)O)=C[C@H](N)[C@H]1NC(C)=O
IC50 [2]: 9 nM
IC50 (Neuraminidase [3]): 1.9 µM

CCCN(CCc1ccc(Cc2ccccc2)cc1)C(=O)[C@@H]1OC(C(=O)O)=C[C@H](N)[C@H]1NC(C)=O
IC50 [2]: 270 nM
IC50 (Neuraminidase [3]): 5.2 µM

CCC1CCC(CC)N1C(=O)[C@@H]1OC(C(=O)O)=C[C@H](N)[C@H]1NC(C)=O (some centres not stated)
IC50 [2]: 290 nM
IC50 (Neuraminidase [3]): 26 µM

CCCN(CCC)C(=O)[C@@H]1OC(C(=O)O)=C[C@H](N)[C@H]1NC(C)=O
ED90 (Mus musculus [8]): 2.1 mg/kg
IC50 [9]: 8 nM
Vd [10]: 0.4 L/kg
IC50 [11]: 3 nM
half-life [12]: 21 min
Reduction in virus titer (Mus musculus [13]): 82%
IC50 [14]: 30 nM
IC50 [15]: 20 nM
Reduction in virus titer (Mus musculus [16]): 99.84%
clearance [17]: 12.5 mL/min/kg

CCCN(C)C(=O)[C@@H]1OC(C(=O)O)=C[C@H](NC(=N)N)[C@H]1NC(C)=O
ED90 (Mus musculus [8]): < 1 mg/kg
IC50 [9]: 5.6 nM
Vd [10]: 0.3 L/kg
IC50 [11]: 3 nM
half-life [12]: 12.6 min
Reduction in virus titer (Mus musculus [13]): 95%
IC50 [14]: 26 nM
IC50 [15]: 28 nM
Reduction in virus titer (Mus musculus [16]): 99.9%
clearance [17]: 17.8 mL/min/kg
Reduction in virus titer (Mus musculus [18]): 74.5%

CCN(CC)C(=O)[C@@H]1OC(C(=O)O)=C[C@H](N)[C@H]1NC(C)=O
IC50 [9]: 40 nM
IC50 [11]: 5 nM
IC50 [14]: 85 nM
IC50 [15]: 20 nM
IC50 (Neuraminidase [3]): 0.36 µM

CC(=O)N[C@@H]1[C@@H](NC(=N)N)C=C(C(=O)O)O[C@H]1C(=O)NCCN
IC50 [5]: 20 µM

CCCN(CCc1ccc(OC)cc1)C(=O)[C@@H]1OC(C(=O)O)=C[C@H](N)[C@H]1NC(C)=O
IC50 [2]: 8 nM
IC50 (Neuraminidase [3]): 3.3 µM

CC(=O)N[C@@H]1[C@@H](N)C=C(C(=O)O)O[C@H]1C(=O)N(CCc1ccccc1)CC(N)=O
IC50 [2]: 19000 nM
IC50 (Neuraminidase [3]): 31 µM

CC(=O)N[C@@H]1[C@@H](N)C=C(C(=O)O)O[C@H]1C(=O)NCCN
IC50 [5]: > 390 µM

CCCN(CCc1cccc(-c2ccccc2)c1)C(=O)[C@@H]1OC(C(=O)O)=C[C@H](N)[C@H]1NC(C)=O
IC50 [2]: 2 nM
IC50 (Neuraminidase [3]): 4.5 µM

CCCN(CCCc1ccccc1)C(=O)[C@@H]1OC(C(=O)O)=C[C@H](N)[C@H]1NC(C)=O
IC50 [2]: 18 nM
IC50 (Neuraminidase [3]): 46 µM

CC(=O)N[C@@H]1[C@@H](N)C=C(C(=O)O)O[C@H]1C(=O)N(CCc1ccccc1)CC(=O)O
IC50 [2]: 130000 nM
IC50 (Neuraminidase [3]): 75 µM

CCCN(CCc1ccccc1OC)C(=O)[C@@H]1OC(C(=O)O)=C[C@H](N)[C@H]1NC(C)=O
IC50 [2]: 9 nM
IC50 (Neuraminidase [3]): 12 µM

CC(=O)N[C@@H]1[C@@H](N)C=C(C(=O)O)O[C@H]1C(=O)N(CCc1ccccc1)CCN(C)C
IC50 [2]: > 300000 nM
IC50 (Neuraminidase [3]): > 300 µM

CC(=O)N[C@@H]1[C@@H](N)C=C(C(=O)O)O[C@H]1C(=O)N(CCc1ccccc1)C(C)C
IC50 [2]: 8 nM
IC50 (Neuraminidase [3]): 7.9 µM

CCCN(CCc1cccc(OC)c1)C(=O)[C@@H]1OC(C(=O)O)=C[C@H](N)[C@H]1NC(C)=O
IC50 [2]: 5 nM
IC50 (Neuraminidase [3]): 3.2 µM

CCCN(CCc1ccc(Cl)cc1Cl)C(=O)[C@@H]1OC(C(=O)O)=C[C@H](N)[C@H]1NC(C)=O
IC50 [2]: 6 nM
IC50 (Neuraminidase [3]): 16 µM

CCCN(Cc1ccccc1)C(=O)[C@@H]1OC(C(=O)O)=C[C@H](N)[C@H]1NC(C)=O
IC50 [2]: 4200 nM
IC50 (Neuraminidase [3]): 180 µM

CCCN(CCc1ccc(C(C)C)cc1)C(=O)[C@@H]1OC(C(=O)O)=C[C@H](N)[C@H]1NC(C)=O
IC50 [2]: 12 nM
IC50 (Neuraminidase [3]): 6.2 µM

CCCCCCCCCN(CCC)C(=O)[C@@H]1OC(C(=O)O)=C[C@H](N)[C@H]1NC(C)=O
half-life [19]: 52.2 min
ED90 (Influenza A virus [20]): > 1 mg/kg
Reduction in virus titer (Influenza A virus [21]): 71%
Reduction in virus titer (Influenza A virus [22]): 96%
Vd [23]: 1.3 L/kg
clearance [24]: 17.9 mL/min/kg

CCCN(CCC)C(=O)[C@@H]1OC(C(=O)O)=C[C@H](NC(=N)N)[C@H]1NC(C)=O
Reduction in virus titer (Mus musculus [13]): 99.93%
Reduction in virus titer (Mus musculus [25]): 99.3%
half-life [19]: 22.2 min
Vd [23]: 0.5 L/kg
clearance [24]: 6 mL/min/kg
Reduction in virus titer (Mus musculus [18]): 86%
ED90 (Mus musculus [26]): < 0.01 mg/kg

CC(=O)N[C@@H]1[C@@H](N)C=C(C(=O)O)O[C@H]1C(=O)N(CCc1ccccc1)C1CC1
IC50 [2]: 46 nM
IC50 (Neuraminidase [3]): 36 µM

CCCN(C)C(=O)[C@@H]1OC(C(=O)O)=C[C@H](N)[C@H]1NC(C)=O
IC50 [9]: 3700 nM
IC50 [11]: 180 nM
IC50 [14]: 4700 nM
IC50 [15]: 110 nM

CC(=O)N[C@@H]1[C@@H](N)C=C(C(=O)O)O[C@H]1C(=O)NCCc1ccccc1
IC50 (Neuraminidase [27]): > 100 µg/mL

CCN(CC)C(=O)[C@@H]1OC(C(=O)O)=C[C@H](NC(=N)N)[C@H]1NC(C)=O
Reduction in virus titer (Mus musculus [18]): 89%

CCCN(CCc1ccc(-c2ccccc2)cc1)C(=O)[C@@H]1OC(C(=O)O)=C[C@H](N)[C@H]1NC(C)=O
IC50 [2]: 2 nM

CCCN(CC)C(=O)[C@@H]1OC(C(=O)O)=C[C@H](N)[C@H]1NC(C)=O
IC50 (Neuraminidase [3]): 0.41 µM

CC(=O)N[C@H]1[C@H]([C@H](O)[C@H](O)CO)OC(C(=O)O)=C[C@@H]1NC(=N)N [ZANAMIVIR]
Vd [10]: 0.3 L/kg
Reduction in virus titer (Mus musculus [28]): 99.5%
half-life [12]: 9.6 min
ED90 (Mus musculus [29]): 0.03 mg/kg
Reduction in virus titer (Mus musculus [30]): 96.2%
clearance [17]: 24.9 mL/min/kg

Reference: ChEMBL document CHEMBL1131488, “Dihydropyrancarboxamides related to zanamivir: a new series of inhibitors of influenza virus sialidases. 1. Discovery, synthesis, biological activity, and structure-activity relationships of 4-guanidino- and 4-amino-4H-pyran-6-carboxamides” (J Med Chem, 1998)
